Source: ChEMBL document CHEMBL1137545, “Antiproliferative activities of a library of hybrids between indanones and HDAC inhibitor SAHA and MS-275 analogues” (Bioorg Med Chem Lett, 2007)
Calls of active or inactive are those of the source. No cut-off for these calls is given here.

Test system: NCI-H661
Assay: Antiproliferative activity against H661 cells at 25 uM after 48 hrs
Format: functional, cell-based
Details: Homo sapiens

SMILES | Activity
CC1(CCCCCC(=O)NO)Cc2ccccc2C1=O (centres undefined) | inactive
CC1(Cc2nc(C(=O)NO)cs2)Cc2ccccc2C1=O (centres undefined) | inactive
CC1(Cc2nc(C(=O)Nc3ccccc3N)cs2)Cc2ccccc2C1=O (centres undefined) | inactive
CN(C)c1ccc2c(c1)CC(C)(CCCCC(=O)NO)C2=O (centres undefined) | inactive
CC1(Cc2cccc(C(=O)NO)c2)Cc2ccccc2C1=O (centres undefined) | inactive
CC1(Cc2cccc(C(=O)Nc3ccccc3N)c2)Cc2ccccc2C1=O (centres undefined) | inactive

Test system: not listed separately
Assay: Antiproliferative activity against H661 cells after 48 hrs
Format: functional, cell-based
Details: Homo sapiens, NCI-H661, 48 h

SMILES | IC50
CC1(CCCCC(=O)NO)Cc2ccccc2C1=O (centres undefined) | > 25 µM
CC1(CCCCCCC(=O)NO)Cc2ccccc2C1=O (centres undefined) | 20 µM
CC(/C=C/C(=O)NO)=C\[C@@H](C)C(=O)c1ccc(N(C)C)cc1 [TRICHOSTATIN] | 0.085 µM
